Molecular target: T1, human leukocyte elastase (HLE) (Homo sapiens, UniProt P08246)
T1 sequence (P08246 30-267): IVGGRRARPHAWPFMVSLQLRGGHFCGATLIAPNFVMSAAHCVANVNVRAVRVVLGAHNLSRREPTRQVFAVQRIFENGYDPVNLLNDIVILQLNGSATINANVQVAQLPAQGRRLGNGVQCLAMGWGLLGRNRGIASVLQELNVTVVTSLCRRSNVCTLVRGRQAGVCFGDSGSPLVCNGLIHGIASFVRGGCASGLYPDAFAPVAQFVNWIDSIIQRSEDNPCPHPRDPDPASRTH
Assay: Inhibition of human leukocyte elastase (HLE) on methoxy-succinyl-alanyl-alanyl-prolyl-valine-p-nitroanilide
Type: biochemical
Settings: dissociation constant of the inhibitor-HLE complex
Protocol: The potency of a Compound to act as an inhibitor of human leukocyte elastase (HLE) on the low molecular weight peptide substrate methoxy-succinyl-alanyl-alanyl-prolyl-valine-p-nitroanilide is determined as described in U.S. Pat. No. 4,910,190. The potency of an inhibitor is evaluated by obtaining a kinetic determination of the dissociation constant, Ki, of the complex formed from the interaction of the inhibitor with HLE. If a Compound is found to be a "slow-binding" inhibitor of HLE, special methods of analysis to accurately determine Ki values for the inhibition of HLE are carried out as described in U.S. Pat. 4,910,190.

SMILES: CC(C)C(NC(=O)Cn1c(-c2ccccc2)cc2c([nH]c3c(C=O)cccc32)c1=O)C(=O)C(F)(F)F (stereo not shown) [Example 2, 2-(8-Formyl-1-oxo-3-phenyl-1,2-dihydropyrido[3,4-b]indol2-yl)-N-(3,3,3-trifluoro-1-isopropyl-2-oxopropyl)acetamide]
- Ki: 27 nM

Reference: patent US5405852A, “Amide derivatives” (Zeneca Limited, priority 1992, dated 1995)
